The results in this text go back to patent publication US9145354B2, “Pharmaceutical compounds” (priority 2011, dated 2015).

pIC50: −log10 of the molar value. Like-named read-outs stand apart in the source and are kept apart here. Bounds are passed on as bounds.

This test deals with full length NS3/4a (Hepatitis C virus genotype 1b (isolate BK) (HCV), UniProt P26663). The experiment in a line: NS3 Protease Assay (Example A), FRET-based. The test is classed as biochemical. Particulars: for IC50: HCV NS3 protease assay, full length NS3/4a, read-out: Assay A IC50 (μM) average; for pIC50: read-out: IC50 against the protease activity of the full length NS3/4a. The method, boiled down:
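Initial rates were taken from fluorescence progress curves over 30 min at room temperature, and IC50 was fitted across replicates. In-house full-length NS3/4a cleaved a FRET peptide (5-FAMsp/QXL520) from the NS4A/B site. Medium: 50 mM Tris pH8, 20 mM DTT, 1% CHAPS, 10% glycerol, 5% DMSO.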

Setting [1] is: stated as IC50 less than 30 μM or at least 40% inhibition at a concentration of 100 μM.

Chain of full length NS3/4a (P26663 1027-1657): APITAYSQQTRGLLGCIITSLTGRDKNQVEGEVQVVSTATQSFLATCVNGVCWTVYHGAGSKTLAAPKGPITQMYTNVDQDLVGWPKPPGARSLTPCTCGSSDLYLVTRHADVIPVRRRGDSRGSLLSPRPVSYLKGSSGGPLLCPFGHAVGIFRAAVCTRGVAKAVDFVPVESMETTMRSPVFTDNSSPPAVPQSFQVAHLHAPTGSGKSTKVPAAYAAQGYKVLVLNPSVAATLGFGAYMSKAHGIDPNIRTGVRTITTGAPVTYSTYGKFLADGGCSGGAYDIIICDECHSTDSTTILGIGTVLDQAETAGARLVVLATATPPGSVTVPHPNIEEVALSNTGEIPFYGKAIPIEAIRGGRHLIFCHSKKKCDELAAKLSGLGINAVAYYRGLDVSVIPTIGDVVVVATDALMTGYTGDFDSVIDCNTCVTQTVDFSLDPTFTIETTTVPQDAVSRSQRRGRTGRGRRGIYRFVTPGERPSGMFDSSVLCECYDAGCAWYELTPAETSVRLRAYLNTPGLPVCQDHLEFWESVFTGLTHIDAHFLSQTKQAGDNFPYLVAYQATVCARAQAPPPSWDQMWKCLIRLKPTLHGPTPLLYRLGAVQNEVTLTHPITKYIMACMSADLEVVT

`CC[C@@H](N[C@H](C)CC(N)=O)c1ccc(F)c(C(=O)c2ccccc2)c1F` [Example 158, (3R)-3-{[(1R)-1-(3-benzoyl-2,4-difluorophenyl)propyl]-amino}butanamide]: the IC50 (as a rule, the concentration at which inhibition is half-maximal) came to 0.35 µM. Regarding `CC[C@@H](N[C@H](C)CC(N)=O)c1ccc(Cl)c(C(=O)c2ccc(-n3cc(CO)cn3)nc2)c1F` [Example 160, (3R)-3-{[(1R)-1-[4-chloro-2-fluoro-3-({6-[4-(hydroxymethyl)-1H-pyrazol-1-yl]pyridin-3-yl}carbonyl)phenyl]-propyl]amino}-butanamide], the IC50 is 4.2 µM and the pIC50 is 5.30 to 6.00. For `CC[C@@H](NCCO)c1ccc(Cl)c(C(=O)c2cccnc2)c1F` [Example 163, 2-{[(1R)-1-{4-Chloro-2-fluoro-3-[(pyridin-3-yl)carbonyl]phenyl}propyl]amino}ethan-1-ol], the inhibition (usually the change of the read-out against control, counted positive when it falls) at 10 µM was found to be 62%. The pIC50 under setting [1] was more than 4.52. Compound `CC[C@@H](NCC(N)=O)c1ccc(Cl)c(C(=O)c2cccnc2)c1F` [Example 164, 2-{[(1R)-1-{4-Chloro-2-fluoro-3-[(pyridin-3-yl)carbonyl]phenyl}propyl]amino}-acetamide] had an inhibition at 10 µM of 37%. As to `CC[C@@H](N[C@@H](C)CO)c1ccc(Cl)c(C(=O)c2cccnc2)c1F` [Example 165, (2S)-2-{[(1R)-1-{4-chloro-2-fluoro-3-[(pyridin-3-yl)carbonyl]phenyl}-propyl]amino}-propan-1-ol], the IC50 was 1.4 µM and the pIC50 was 5.30 to 6.00.

As to `CC[C@@H](N[C@H](C)CO)c1ccc(Cl)c(C(=O)c2cccnc2)c1F` [Example 166, (2R)-2-{[(1R)-1-{4-chloro-2-fluoro-3-[(pyridin-3-yl)carbonyl}phenyI}-propyl]amino}propan-1-ol], the IC50 came out at 6.3 µM. Also, the pIC50 under setting [1] was more than 4.52. Turning to `CC[C@@H](N[C@H](C)C(N)=O)c1ccc(Cl)c(C(=O)c2cccnc2)c1F` [Example 169, (2R)-2-{[(1R)-1-{4-chloro-2-fluoro-3-[(pyridin-3-yl)carbonyl]phenyI}-propyl]amino}propanamide], the “Assay A % inhibition average” value (@ 100 uM) was 53% @ 100 uM. Also, the pIC50 under setting [1] was more than 4.52. Turning to `CC[C@@H](N[C@@H](C)C(N)=O)c1ccc(Cl)c(C(=O)c2cccnc2)c1F` [Example 170, (2S)-2-{[(1R)-1-{4-chloro-2-fluoro-3-[(pyridin-3-yl)carbonyl]phenyl}-propyl]amino}-propanamide], the pIC50 is 5.30 to 6.00. At 3 µM the inhibition (@ 3 uM) was 55%.

In the case of `CC[C@@H](NCC(C)(C)C(N)=O)c1ccc(Cl)c(C(=O)c2cccnc2)c1F` [Example 172, 3-{(R)-1-[4-Chloro-2-fluoro-3-(pyridine-3-carbonyl)-phenyl]-propylamino}-2,2-dimethyl-propionamide], the IC50 amounted to 1.6 µM and the pIC50 is 5.30 to 6.00.

Regarding `CC[C@H](NCCO)c1ccc(Cl)c(C(=O)c2ccc(N)nc2)c1F` [Example 173, 2-{[(1S)-1-{3-[(6-aminopyridin-3-yl)carbonyl]-4-chloro-2-fluorophenyl}propyl]-amino}ethan-1-ol], the IC50 stood at 0.13 µM and the pIC50 is more than 6.00.

Consider `CC[C@@H](NC[C@@H](C)C(N)=O)c1ccc(Cl)c(C(=O)c2cccnc2)c1F.Cl` [Example 174, 2R)-3-{[(1R)-1-{4-chloro-2-fluoro-3-[(pyridin-3-yl)carbonyl]phenyl}-propyl]amino}-2-methylpropanamide HCl (1:1], for which the “Assay A % inhibition average” value is 47% @ 30 uM. Moreover, the pIC50 under setting [1] is more than 4.52. With `CC[C@@H](NCCCO)c1ccc(Cl)c(C(=O)c2ccccc2)c1F` [Example 181, 3-{[(1R)-1-(3-benzoyl-4-chloro-2-fluorophenyl)propyl]-amino}propan-1-ol], the IC50 was 0.26 µM. For the compound `CC[C@H](NCCCO)c1ccc(Cl)c(C(=O)c2ccccc2)c1F` [Example 182, 3-{[(1S)-1-(3-benzoyl-4-chloro-2-fluorophenyl)propyl]-amino}propan-1-ol], the IC50 was 0.038 µM.
